For 27 compounds, Ki and Ratio Ki results are on record in ChEMBL document CHEMBL5137112, “Semisynthetic Transformations on (+)-Boldine Reveal a 5-HT2A/2CR Antagonist” (J Nat Prod, 2022).

Molecules are shown by their SMILES.

Assay [1] concerns the target 5-hydroxytryptamine receptor 2B (Homo sapiens, UniProt P41595). In words: Displacement of [3H]LSD from 5-HT2B receptor (unknown origin) assessed as inhibition constant incubated for 90 mins by MicroBeta scintillation counting method.
Assay [2] has as its target T1, 5-hydroxytryptamine receptor 2C (Homo sapiens, UniProt P28335).
T1 sequence (P28335 whole entry): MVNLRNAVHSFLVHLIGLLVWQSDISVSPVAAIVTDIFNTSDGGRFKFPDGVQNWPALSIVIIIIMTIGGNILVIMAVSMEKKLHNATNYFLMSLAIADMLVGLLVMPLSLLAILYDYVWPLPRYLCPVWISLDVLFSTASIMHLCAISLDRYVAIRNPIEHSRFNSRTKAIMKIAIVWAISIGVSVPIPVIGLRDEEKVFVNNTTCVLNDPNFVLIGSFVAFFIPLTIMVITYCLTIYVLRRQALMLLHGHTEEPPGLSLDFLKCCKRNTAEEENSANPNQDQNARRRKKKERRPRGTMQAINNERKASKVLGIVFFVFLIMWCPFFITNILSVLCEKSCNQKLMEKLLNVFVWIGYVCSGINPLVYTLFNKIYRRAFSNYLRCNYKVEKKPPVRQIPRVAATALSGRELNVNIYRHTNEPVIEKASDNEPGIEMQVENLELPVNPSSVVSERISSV
In words: Displacement of [3H]Mesulergine from 5-HT2C receptor (unknown origin) assessed as inhibition constant incubated for 90 mins by MicroBeta scintillation counting method.

Assay [3] is filed under the species Homo sapiens. Briefly: Selectivity ratio of Ki for 5-HT2B receptor (unknown origin) to Ki for 5-HT2C receptor (unknown origin).
Assay [4] deals with Serotonin 2 receptors; 5-HT2a & 5-HT2c (Homo sapiens) (UniProt P28223+P28335). Briefly: Selectivity ratio of Ki for 5-HT2A receptor (unknown origin) to Ki for 5-HT2C receptor (unknown origin). It is filed as protein assay.
The species named for assay [5] is Homo sapiens. Briefly: Selectivity ratio of Ki for 5-HT2A receptor (unknown origin) to Ki for 5-HT2B receptor (unknown origin).
Assay [6] has as its target 5-hydroxytryptamine receptor 2A (Homo sapiens, UniProt P28223). In words: Displacement of [3H]Ketanserin from 5-HT2A receptor (unknown origin) assessed as inhibition constant incubated for 90 mins by MicroBeta scintillation counting method.

Chain of 5-hydroxytryptamine receptor 2B (P41595 whole entry): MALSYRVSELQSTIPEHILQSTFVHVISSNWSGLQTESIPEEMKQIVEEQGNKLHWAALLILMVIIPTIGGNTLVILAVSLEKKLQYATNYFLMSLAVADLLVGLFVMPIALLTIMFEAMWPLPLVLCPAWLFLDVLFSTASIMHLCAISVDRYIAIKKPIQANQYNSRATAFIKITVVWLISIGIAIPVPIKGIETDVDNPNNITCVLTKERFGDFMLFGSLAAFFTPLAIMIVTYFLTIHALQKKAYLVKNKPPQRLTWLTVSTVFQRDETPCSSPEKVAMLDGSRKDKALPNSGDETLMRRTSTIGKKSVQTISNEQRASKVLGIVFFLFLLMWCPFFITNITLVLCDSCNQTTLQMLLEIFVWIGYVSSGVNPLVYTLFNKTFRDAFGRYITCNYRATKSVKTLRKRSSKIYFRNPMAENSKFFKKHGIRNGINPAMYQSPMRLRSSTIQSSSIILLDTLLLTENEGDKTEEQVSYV
Chain of 5-hydroxytryptamine receptor 2A (P28223 whole entry): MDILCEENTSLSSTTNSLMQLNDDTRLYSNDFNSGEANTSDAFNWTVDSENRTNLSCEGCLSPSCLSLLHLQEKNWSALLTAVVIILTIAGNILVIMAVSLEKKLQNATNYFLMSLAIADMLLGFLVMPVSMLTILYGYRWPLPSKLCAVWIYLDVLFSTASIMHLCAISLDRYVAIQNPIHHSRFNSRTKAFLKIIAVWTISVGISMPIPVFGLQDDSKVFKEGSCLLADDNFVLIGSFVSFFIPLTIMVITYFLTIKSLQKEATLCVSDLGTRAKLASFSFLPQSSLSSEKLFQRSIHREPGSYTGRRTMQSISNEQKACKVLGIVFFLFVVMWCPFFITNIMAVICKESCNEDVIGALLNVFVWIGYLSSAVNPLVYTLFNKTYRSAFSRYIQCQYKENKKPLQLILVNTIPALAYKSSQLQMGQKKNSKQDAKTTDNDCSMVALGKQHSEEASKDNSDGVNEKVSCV
Chain of Serotonin 2 receptors; 5-HT2a & 5-HT2c (Homo sapiens) (P28223 whole entry, looked up, one chain of several): as the sequence (P28223 whole entry) above

Take `COc1cc2c(cc1OC)-c1c(OC)c(OCCF)cc3c1[C@H](C2)N(C)CC3`: the values for the inhibitory constant (Ki) in assay [1] and in assay [2] were 629 nM and 1130 nM, respectively. The Ratio Ki in the assay filed under Homo sapiens [3] is 0.6.

As for `COc1cc2c(cc1OC(C)C)C[C@H]1c3c(cc(OC)c(OC)c3-2)CCN1C`, the figures for the Ki in assay [1] and in assay [2] were 45 nM and 559 nM, respectively. In addition, the Ratio Ki in assay [4] was 1.3; in the assay filed under Homo sapiens [3], 0.1; in the assay filed under Homo sapiens [5] it was 16.7.

For `CCCCOc1cc2c(cc1OC)-c1c(OC)c(OC)cc3c1[C@H](C2)N(C)CC3`, the Ki was found to be 56 nM in assay [1] and 450 nM in assay [2]. In addition, the Ratio Ki in assay [4] was found to be 0.6; in the assay filed under Homo sapiens [3], 0.1; in the assay listed under Homo sapiens [5], 4.8.

In the case of `CCCCC(C)Oc1cc2c(cc1OC)-c1c(OC)c(OC)cc3c1[C@H](C2)N(C)CC3` (some centres undefined), the figures for the Ki in assay [1] and in assay [2] were 33 nM and 274 nM, respectively. For the same compound, the Ratio Ki was found to be 1.6 in assay [4], 0.1 in the assay filed under Homo sapiens [3] and 13.5 in the assay listed under Homo sapiens [5].

With `COc1cc2c(cc1OCC1CC1)C[C@H]1c3c(cc(OC)c(OC)c3-2)CCN1C`, the Ki in assay [1] was 29 nM; in assay [2], 533 nM. Moreover, the Ratio Ki was found to be 1.1 in assay [4], 0.05 in the assay listed under Homo sapiens [3] and 20.1 in the assay filed under Homo sapiens [5].

With `Cn1ccc2cc3c(cc21)CCN3C(=O)Nc1cccnc1`, the Ki in assay [1] worked out at 20 nM.

As for `COc1cc2c(cc1OCCF)C[C@H]1c3c(cc(OC)c(OC)c3-2)CCN1C`, the values for the Ki in assay [1] and in assay [2] were 48 nM and 542 nM, respectively. The Ratio Ki amounted to 2.1 in assay [4], 0.1 in the assay listed under Homo sapiens [3] and 24.1 in the assay listed under Homo sapiens [5].

For `CCCCCOc1cc2c3c(c1OC)-c1cc(OC)c(OC)cc1C[C@@H]3N(C)CC2`, the inhibition constant Ki in assay [6] was found to be 138 nM; in assay [1], 47 nM; in assay [2], 40 nM. For the same compound, the Ratio Ki in assay [4] amounted to 3.5; in the assay listed under Homo sapiens [3], 1; in the assay listed under Homo sapiens [5], 2.9.

In the case of `CCOc1cc2c3c(c1OC)-c1cc(OC)c(OC)cc1C[C@@H]3N(C)CC2`, the Ki in assay [6] came to 512 nM; in assay [1] it was 153 nM; in assay [2], 340 nM. The figures for the Ratio Ki (in assay [4]; in the assay filed under Homo sapiens [3]; in the assay filed under Homo sapiens [5]) were 1.5, 0.5 and 3.3, respectively.

Turning to `C=CCOc1cc2c3c(c1OC)-c1cc(OC)c(OC)cc1C[C@@H]3N(C)CC2`, the Ki turned out to be 101 nM in assay [6], 16 nM in assay [1] and 50 nM in assay [2]. The values for the Ratio Ki (in assay [4]; in the assay filed under Homo sapiens [3]; in the assay listed under Homo sapiens [5]) were 2, 0.3 and 6.3, respectively.

For `COc1cc2c(cc1OC)-c1c(OC)c(OC(C)C)cc3c1[C@H](C2)N(C)CC3`, the Ki in assay [6] was found to be 587 nM; in assay [1], 156 nM; in assay [2], 190 nM. The Ratio Ki in assay [4] was found to be 3.1; in the assay listed under Homo sapiens [3], 0.8; in the assay listed under Homo sapiens [5], 3.8.

For `COc1cc2c(cc1OCc1ccccc1)C[C@H]1c3c(cc(OC)c(OC)c3-2)CCN1C`, the Ki in assay [1] stood at 192 nM; in assay [2], 179 nM. Besides, the Ratio Ki in assay [4] amounted to 1.2; in the assay listed under Homo sapiens [3], 1.1; in the assay filed under Homo sapiens [5], 1.1.

In the case of `CCCC(C)Oc1cc2c(cc1OC)-c1c(OC)c(OC)cc3c1[C@H](C2)N(C)CC3` (some centres undefined), the Ki is 10 nM in assay [1] and 219 nM in assay [2]. Besides, the Ratio Ki was determined as 1.1 in assay [4], 0.05 in the assay listed under Homo sapiens [3] and 24.4 in the assay listed under Homo sapiens [5].

In the case of `COc1cc2c(cc1OC)-c1c(OC)c(OC)cc3c1[C@H](C2)N(C)CC3` [GLAUCINE], the Ki stood at 119 nM in assay [1] and 328 nM in assay [2]. In addition, the Ratio Ki in assay [4] is 2.9; in the assay listed under Homo sapiens [3], 0.4; in the assay listed under Homo sapiens [5], 8.1.

Turning to `CCCCC(C)Oc1cc2c3c(c1OC)-c1cc(OC)c(OC)cc1C[C@@H]3N(C)CC2` (some centres undefined), the Ki in assay [6] was determined as 155 nM; in assay [1], 82 nM; in assay [2], 72 nM. The figures for the Ratio Ki (in assay [4]; in the assay filed under Homo sapiens [3]; in the assay listed under Homo sapiens [5]) were 2.2, 1 and 1.9, respectively.

As for `C=CCOc1cc2c(cc1OC)-c1c(OC)c(OC)cc3c1[C@H](C2)N(C)CC3`, the Ki turned out to be 55 nM in assay [1] and 543 nM in assay [2]. Further, the Ratio Ki in assay [4] came out at 0.7; in the assay listed under Homo sapiens [3], 0.1; in the assay filed under Homo sapiens [5] it was 7.

Take `CCCC(C)Oc1cc2c3c(c1OC)-c1cc(OC)c(OC)cc1C[C@@H]3N(C)CC2` (some centres undefined): the Ki was found to be 244 nM in assay [6], 25 nM in assay [1] and 37 nM in assay [2]. Further, the Ratio Ki in assay [4] was found to be 6.6; in the assay listed under Homo sapiens [3] it was 0.7; in the assay filed under Homo sapiens [5] it was 9.8.

Consider `COc1cc2c(cc1OCc1ccc(Br)cc1)C[C@H]1c3c(cc(OC)c(OC)c3-2)CCN1C`, for which the Ki came out at 42 nM in assay [1] and 281 nM in assay [2]. Besides, the Ratio Ki in assay [4] worked out at 1.5; in the assay filed under Homo sapiens [3], 0.1; in the assay listed under Homo sapiens [5] it was 10.

As for `CCCCCCOc1cc2c(cc1OC)-c1c(OC)c(OC)cc3c1[C@H](C2)N(C)CC3`, the inhibitory constant (Ki) in assay [1] is 53 nM; in assay [2] it was 614 nM. Moreover, the Ratio Ki in assay [4] was 0.9; in the assay filed under Homo sapiens [3], 0.1; in the assay filed under Homo sapiens [5], 10.8.

For the compound `Cc1nc2sccn2c(=O)c1CCN1CCC(=C(c2ccc(F)cc2)c2ccc(F)cc2)CC1` [RITANSERIN], the Ki in assay [2] was found to be 0.8 nM.

As to `CCCCCCOc1cc2c3c(c1OC)-c1cc(OC)c(OC)cc1C[C@@H]3N(C)CC2`, the Ki worked out at 213 nM in assay [6], 105 nM in assay [1] and 82 nM in assay [2]. Also, the figures for the Ratio Ki (in assay [4]; in the assay filed under Homo sapiens [3]; in the assay filed under Homo sapiens [5]) were 2.6, 1 and 2, respectively.

Turning to `CCCCOc1cc2c3c(c1OC)-c1cc(OC)c(OC)cc1C[C@@H]3N(C)CC2`, the Ki in assay [6] came to 187 nM; in assay [1] it was 15 nM; in assay [2] it was 47 nM. Also, the Ratio Ki is 4 in assay [4], 0.3 in the assay listed under Homo sapiens [3] and 12.5 in the assay filed under Homo sapiens [5].

With `CCCCCOc1cc2c(cc1OC)-c1c(OC)c(OC)cc3c1[C@H](C2)N(C)CC3`, the Ki turned out to be 57 nM in assay [1] and 504 nM in assay [2]. Further, the Ratio Ki in assay [4] stood at 0.5; in the assay filed under Homo sapiens [3], 0.1; in the assay filed under Homo sapiens [5], 4.2.

In the case of `CCOc1cc2c(cc1OC)-c1c(OC)c(OC)cc3c1[C@H](C2)N(C)CC3`, the inhibition constant (Ki) worked out at 80 nM in assay [1] and 425 nM in assay [2]. For the same compound, the Ratio Ki in assay [4] was found to be 1.9; in the assay filed under Homo sapiens [3], 0.2; in the assay filed under Homo sapiens [5], 10.2.

For `CCC(C)Oc1cc2c(cc1OC)-c1c(OC)c(OC)cc3c1[C@H](C2)N(C)CC3` (some centres undefined), the results for the Ki in assay [1] and in assay [2] were 22 nM and 238 nM, respectively. The Ratio Ki turned out to be 1.6 in assay [4], 0.1 in the assay filed under Homo sapiens [3] and 17.1 in the assay filed under Homo sapiens [5].

`COc1cc2c(cc1OC1CCCCC1)C[C@H]1c3c(cc(OC)c(OC)c3-2)CCN1C`: the Ki in assay [1] was determined as 53 nM; in assay [2], 614 nM. Moreover, the Ratio Ki in assay [4] was determined as 0.9; in the assay filed under Homo sapiens [3], 0.1; in the assay filed under Homo sapiens [5], 10.8.

Regarding `COc1cc2c(cc1OC)-c1c(OC)c(OC3CCCCC3)cc3c1[C@H](C2)N(C)CC3`, the Ki came to 534 nM in assay [6], 92 nM in assay [1] and 113 nM in assay [2]. Further, the Ratio Ki in assay [4] came out at 4.7; in the assay filed under Homo sapiens [3], 0.8; in the assay listed under Homo sapiens [5] it was 5.8.
